US11974988B2, “Neuroprotective compositions and methods of using the same” (The Board of Supervisors of Louisiana State Univer …, priority 2018, dated 2024)
Entries after “also recorded” stand apart in the source; their conditions may differ. Like-named read-outs stand apart in the source and are kept apart here.

Tests used:
[1] = Tolerability observation after i.p. dosing of SKA-41; conditions: for tolerability: 10 mg/kg i.p., rats
[2] = test system: organotypic hippocampal slice cultures; test: Oxygen-glucose deprivation (OGD) in organotypic hippocampal slice cultures, propidium iodide staining; assay type: cell-based, rat; conditions: 20 min OGD, PI 24 h later; SKA-41 30 μM, MK-801 20 μM, riluzole 30 μM, NBQX 10 μM/AP5 50 μM
Experimental: OGD is an in vitro model for transient cerebral ischemia. In preliminary studies, we prepared hippocampal slice cultures from P7-8 rat pups. Experiments were performed at 14 DIV, when presynaptic Glu function is maximal and synapse formation and NMDAR subunit expression have reached a developmental stage sufficient to sensitize the slice to excitotoxic injury. Propidium iodide (PI), which binds to DNA in a nonspecific manner by penetrating damaged phospholipoid bilayers, was used to assess neural injury 24 h after OGD. […] SKA-41 was present 30 min prior to OGD, during OGD and during the 24 h recovery period.

[3] = test system: rats injected with kainic acid (KA); test: Kainic acid (KA) seizure model, behaviour; assay type: in vivo, rat
From the text: […]. Systemic administration of the glutamate analog, kainic acid (KA), to rats produces progressive limbic seizures culminating in status epilepticus that results in neuronal loss within limbic structures in a pattern similar to that observed in human temporal lobe epilepsy.

KCa channels = conditions: cited from earlier work
[4] = test system: hippocampal neurons of KA-treated rats; test: KA-induced status epilepticus model, hippocampal neurodegeneration (fluoro-jade B, NeuN); assay type: in vivo, rat; conditions: rat, in vivo
From the text: (§1) In Aim 3, we treat male and female rats with the ‘best’ SKA-41 derivatives before and after injection of kainic acid (KA). The KA-induced status epilepticus (SE) model is a well-validated model of temporal lobe epilepsy (TLE), the major form of human epilepsy. The model allows studying the different stages between SE and the development of TLE including SE, the acute and latent stages of epileptogenesis and chronic epilepsy. The excitotoxin KA causes excessive Glu release in the hippocampus and selective destruction of inhibitory SOM interneurons in the hilus region of the dentate gyrus (DG) and loss of pyramidal neurons in the CA3 (esp), and also CA1 regions. We scaled up synthesis of SKA-41, 219, and SKA-378. The identity of the compounds was confirmed by ^1H- and ^13C-NMR and high-resolution mass spectrometry. Compound purity is determined by HPLC and no compounds with less then 98% purity were used. […] Rats were processed for immunohistochemistry 3 days after KA administration. As expected, we find that KA treatment induces significant neural damage (green cells) in the CA3 pyramidal neuron subfield and in neurons in the hilus (FIG. 20 Panel A), which are SOM containing GABAergic interneurons (not shown). Fluoro jade B is a high affinity fluorescent marker used for the localization of neuronal degeneration. […] In studies, we have also administered SKA-378 (30 mg/kg) one hr after the onset of stage IV seizures (SE), followed by another injection at 4 hr post SE and then once each day for 3 days. We find that SKA-378 is also neuroprotective under these conditions.
as §1, with “with” for “with the ‘best’”, “(esp)” for “(esp),”, “were” for “was”, “We” for “As expected, we”, “23” for “20”, “Fluoro-jade” for “Fluoro jade”

Question: For `Nc1nc(-c2ccc(OC(F)(F)F)cc2)cs1` [SKA-41, 4-(4-(Trifluoromethoxy)phenyl)thiazol-2-amine], which tolerability [1] is on record?
Answer: well tolerated with no overt toxicity or sedation; also recorded: well tolerated

Question: And the tolerability ([1]; listed as SKA41)?
Answer: well tolerated with no overt toxicity or sedation

Question: And the untoward effects ([1]; 10-30 mg/kg)?
Answer: did not observe any untoward effects

Question: And the “OGD-induced neural injury (PI staining)” value [2]?
Answer: completely prevents PI staining; also recorded: prevents OGD-induced neural injury

Question: And the “time until staring and twitching signs disappeared after KA injection” value ([3]; SKA-41 30 mg/kg pretreatment)?
Answer: ≤ 2 h

Question: What about the “clonic-tonic convulsions after KA” value ([3]; rat, in vivo) of the same molecule?
Answer: clonic-tonic convulsions were not observed

Question: And the “effect on KCa channels / KCa currents” value (KCa channels)?
Answer: no effect

Question: What about the “effect on KCa channels / KCa currents” value (KCa channels; listed as SKA41) of the same molecule?
Answer: no effect; also recorded: inactive

Question: What about the “neuroprotection against Glu-induced excitotoxicity in the KA model of TLE” value [4] of the same molecule?
Answer: neuroprotective
